Experimental data from US7528252B2, “Derivatives of triazoly-imidazopyridine useful as ligands of the adenosine A2a receptor and their use as medicaments” (Sigma-Tau Industrie Farmaceutiche Riunite S.p.A., priority 2002, dated 2009).

Experiments:
[1] = literature (Ongini et al.); cited from earlier work
[2] = El Yacoubi M; et al Eur. J. Pharm. 401 (2000) 63-77; cited from earlier work
[3] = test system: CD1 male mice; assay: Capacity of the products to induce catalepsy in mice; format: in vivo; conditions: 60 mg/kg, endoperitoneal, 30 minutes prior to the test
Procedure: 10 CD1 male mice were used per group. For this test, a steel bar, 10 cm long, was placed at a height of 4.5 cm above the support surface. Onto this, were placed the front legs of the animals. The presence of catalepsy was determined by measuring the time (in seconds) the animal remained in the posture placed. Later, this parameter was placed relatively, on a scale of rising values (0 to 5) through which, the degree of catalepsy determined in both control animals and in these subjected to treatment with the substances under test could be proportionately expressed.
The reference products and these in this study were administered endoperitoneally, in a volume of 10 ml/kg, 30 minutes prior to the test.
Except for CGS 21680 (reference compound) which was dissolved in 0.9% NaCl, the products in the study and the control antagonist ZM 241385 were solubilised in DMSO and then diluted in Cremofor EL and 0.9% NaCl (final concentrations: DMSO 15%, Cremofor EL 15%, NaCl 0.9%).

[4] = test system: CD1 male mice; assay: Effects on spontaneous motor activity in mice; format: in vivo; conditions: mean ± s.e.
Procedure: For this study, type CD1 male mice (n=8) were used. The effects of the products under study and of the reference compounds were evaluated using an apparatus consisting of a Plexiglas cage (40 cm×40 cm) surrounded by a series of photocells which monitor the movements of the animals placed inside, connected a computerised system, through which, the signals are collected and later elaborated.
Tests were carried out, after endoperitoneal administration of the products. 15 minutes after treatment, the treated animals, alternating with the controls, were placed inside the cage so as to record their spontaneous movements over a total period of 45 minutes broken down into two observation intervals (15′-45′ and 45′-60′, with respect to the time after treatment).
To examine the possible effects of the compounds studied on motor activity, the following parameters were considered: horizontal activity, vertical activity: total distance.
Except for CGS 21680 (reference compound, described in EP 0 277 917, Ciba-Geigy) which was dissolved in 0.9% NaCl, the products studied were solubilised in DMSO and then diluted in Cremofor EL and 0.9% NaCl (final concentrations: DMSO 15%, Cremofor EL 15%, NaCl 0.9%.

[5] = 15 mg/kg endoperitoneal, interval 15′-45′ from treatment
[6] = 15 mg/kg endoperitoneal, interval 45′-60′ from treatment
[7] = 30 mg/kg endoperitoneal, interval 15′-45′ from treatment
[8] = 30 mg/kg endoperitoneal, interval 45′-60′ from treatment
[9] = 60 mg/kg endoperitoneal, interval 15′-45′ from treatment
[10] = 60 mg/kg endoperitoneal, interval 45′-60′ from treatment

Question: For CCn1c(=O)c2c(nc(/C=C/c3ccc(OC)c(OC)c3)n2C)n(CC)c1=O [KW-6002], which “photoisomerisation of the ethylenic bond (stability)” value [1] is on record?
Answer: subject to loss of activity through photoisomerisation of the ethylenic bond

Question: With Nc1nc(NCCc2ccc(O)cc2)nc2nc(-c3ccco3)nn12 [ZM 241385, reference compound] as the compound, how does the bioavailability in vivo [2] read?
Answer: very low bioavailability

Question: And the “appearance of catalepsy in mice (FIG. 1)” value [3]?
Answer: none of them brought about the appearance of catalepsy in mice, analogous to the reference antagonist

Question: And the Horizontal activity [4, 5]?
Answer: 8706 ± 473

Question: And the Total distance [4, 5]?
Answer: 2280 ± 242

Question: And the Vertical activity [4, 5]?
Answer: 680 ± 64

Question: And the Horizontal activity [4, 6]?
Answer: 4148 ± 241

Question: And the Total distance [4, 6]?
Answer: 1022 ± 130

Question: What about the Vertical activity [4, 6] of the same compound?
Answer: 362 ± 78

Question: And the Horizontal activity [4, 7]?
Answer: 7035 ± 709

Question: What about the Total distance [4, 7] of the same compound?
Answer: 1725 ± 186

Question: What about the Vertical activity [4, 7] of the same compound?
Answer: 613 ± 102

Question: And the Horizontal activity [4, 8]?
Answer: 3505 ± 375

Question: What about the Total distance [4, 8] of the same compound?
Answer: 783 ± 165

Question: And the Vertical activity [4, 8]?
Answer: 282 ± 37

Question: What about the Horizontal activity [4, 9] of the same compound?
Answer: 7790 ± 980

Question: And the Total distance [4, 9]?
Answer: 2250 ± 401

Question: And the Vertical activity [4, 9]?
Answer: 570 ± 129

Question: What about the Horizontal activity [4, 10] of the same compound?
Answer: 4241 ± 407

Question: And the Total distance [4, 10]?
Answer: 1131 ± 158

Question: What about the Vertical activity [4, 10] of the same compound?
Answer: 264 ± 56
